# What was measured:
# [1] = microbe, parasite or virus in culture; conditions: Mycobacterium tuberculosis, 96 h, read-out: pIC50 (converted)
# [2] = microbe, parasite or virus in culture; conditions: Mycobacterium tuberculosis, 72 h, read-out: pIC50 (converted)
Compound,IC50 [1] [µM],IC50 [2] [µM]
CC(C)NC(=O)NCC1(N2CCOCC2)CCSC1 (stereo unspecified),> 501,> 501
CN(C1CCCC1)S(=O)(=O)NCCNc1ccccn1,189,94.1
CC(Sc1nc2ccccc2o1)C(=O)N1CCOCC1 (stereo unspecified),11.7,19.2
CC(C)c1csc(C(=O)N(C)c2ccc(Br)cn2)n1,25.3,21.7
Cc1cc(S(=O)(=O)NC(CN)C2CC2)c(F)cc1F (stereo unspecified),18.9,> 501
Cc1cc(Br)cc(C(=O)NCc2nccc(N)n2)c1,> 501,> 501
CN(CC(N)=O)Cc1ccccc1N1CCCC1,> 501,278
CCC(C)(C)NC(=O)c1nn(-c2ccccc2)nc1C,298,199
CCOC(=O)N1CCN(C(=O)Cc2cccs2)CC1,> 501,371
CCCn1cnnc1-c1nc2c([nH]1)CC(c1ccc(Cl)cc1)CNC2=O (stereo unspecified),14.2,17.5
COCCCN1CCN(c2ccccc2OC)CC1 [DIMETHOLIZINE],> 501,346
CCN1CCN(Cc2nc(-c3ccccc3)no2)CC1,> 501,> 501
CC(C)CC(C)Oc1cc(CNS(N)(=O)=O)ccn1 (stereo unspecified),372,116
O=C(CSCCO)Nc1ncc(-c2ccccc2)s1,272,174
CC(C)CC1CCN(S(N)(=O)=O)C1 (stereo unspecified),> 501,> 501
CC(C)c1nnc(CN2CC(n3cccn3)Cc3ccccc32)o1 (stereo unspecified),> 50.1,> 50.1
CCNC(=O)C1CCCN(c2ccncc2Cl)C1 (stereo unspecified),281,129
NC1CCN(c2ccc(C(F)(F)F)cn2)CC1,139,91.6
COC(=O)N1CCC(Nc2nnc(C(F)(F)F)s2)CC1,230,160
OCCN1CCC2(CCc3cc(-c4ccoc4)ccc32)CC1,24.1,23.5
CCc1ccccc1CN1C(=O)CCC1=O,> 501,> 501
N#CC1(C(=O)NCCCNc2ccc(C(F)(F)F)cn2)CCCC1,1.69,0.198
CC(C)C(NS(=O)(=O)N1CCOCC1)c1ccccc1 (stereo unspecified),> 501,> 501
Cn1cccc1C(=O)N1CCN2C[C@H](Oc3cccnc3)C[C@H]2C1,> 50.1,> 50.1
O=C1CCN(Cc2cc(Br)cc3cccnc23)CCN1,> 501,493
COc1ccc(F)cc1C(=O)OCC(=O)NC1CC1,212,105

Compound,IC50 [1] [µM],IC50 [2] [µM]
C=C(C)CSc1nnnn1Cc1ccco1,55.3,51.6
CCc1nnc(CN2CCOC3(CCCC3)C2)o1,> 501,> 501
CC(C)c1cc(N)[nH]n1,> 501,> 501
CC1(C)CCC(C(=O)N2CCCO2)c2ccccc21 (stereo unspecified),> 50.1,> 50.1
CC(C)c1ccc(CN2C(=O)C3(CCNCC3)Nc3ccccc32)cc1,22.3,32
Cc1ccc2c(c1)nc1n2[C@@H](CNC(=O)c2cccnc2)COC1,> 50.1,> 50.1
CCCn1nnc(NC(=O)COc2ccc(Cl)cc2)n1,272,237
CC(C)N(CCS(=O)(=O)c1ccccc1)CC(N)=O,> 501,435
Cc1ccc(OC2CN(C(=O)[C@H](N)C(C)C)C2)cc1,236,393
CN(Cc1ccco1)C(=O)CCc1ccc(C#N)cc1,77.4,31.7
CN(C)c1cc(C(=O)Nc2ccccc2C(=O)NC(C)(C)C)ccn1,> 50.1,> 50.1
COCC(=O)NC(C)Cc1cccc(Cl)c1 (stereo unspecified),18.5,11.2
NCCCc1cccc(F)c1,> 501,74
COCCOc1ccc(NC(=O)OCC(F)(F)F)cn1,110,208
CC1CN(C(=O)c2cnsn2)c2cccc(Cl)c2O1 (stereo unspecified),> 501,67.6
c1cnc(N2CC[C@@H](OCC3CC3)[C@@H]2Cc2cccnc2)nc1,> 50.1,> 50.1
Cn1nc(CN2CCCN(C3CCCC3)CC2)c2c(Cl)cccc21,39.8,44.8
NCCn1cc(C(=O)NCCSC2CCCCC2)nn1,129,178
O=C(NCc1cccs1)c1cnsn1,17.4,3.61
CCCNc1nnc(SC2CCOC2)s1 (stereo unspecified),70.9,259
Cc1csc(NC(=O)CNC(=O)c2cccs2)n1,> 501,185
COCCN1CCN(C(C)C(=O)Nc2ccnn2C(C)C)CC1 (stereo unspecified),> 50.1,> 50.1
c1ccc(-c2nc(CCNCc3ccncc3)co2)cc1,> 50.1,> 50.1
O=C(NCCSCc1cccc(Cl)c1)C1CNCCO1 (stereo unspecified),259,266
CCC(C)C(=O)NCCNc1ccc(C(F)(F)F)cn1 (stereo unspecified),57.7,51.5
N#Cc1cccc(S(=O)(=O)N2CCCCC2CCN2CCCC2)c1 (stereo unspecified),8.72,14.3

Compound,IC50 [1] [µM],IC50 [2] [µM]
Cc1ncsc1C(=O)NC(C)C(C)C (stereo unspecified),> 501,> 501
Cc1cnn(CCNCc2ccc3c(c2)OCCO3)c1,211,127
O=C(c1ccno1)N1CCCC(c2ncncc2-c2ccncc2)C1 (stereo unspecified),> 50.1,> 50.1
O=C(c1cc(C2CC2)on1)N1CCCN(C2CC2)CC1,> 501,> 501
COc1ccc2[nH]c(C(=O)NCC3CCCO3)cc2c1 (stereo unspecified),220,156
CC(C)c1cccc(CN[C@H](CO)C(C)C)n1,> 501,303
CC(C)(C)C(=O)CCN1CCCCC1,290,204
O=c1c2sccc2nc2n1CCN(Cc1cc(F)ccc1F)CC2,> 50.1,25
CCCS(=O)(=O)N(C)Cc1cccc(OCC)n1,> 501,367
COCCN1CCCC(Nc2ccc(Cl)cn2)C1 (stereo unspecified),172,145
OC[C@@H]1CCCN1Cc1cccc(F)c1F,> 501,> 501
COCCNc1nc(-c2ccc(S(N)(=O)=O)cc2)cs1,> 501,207
O=C(c1cc(Br)c[nH]1)N1CCN2CCCCC2C1 (stereo unspecified),> 501,232
COc1cccc(CN(C)C(=O)CSc2ccc3c(c2)OCCO3)c1,25,> 50.1
COc1ccccc1C(C)NC(=O)Cn1cc(C)cn1 (stereo unspecified),> 501,226
NCCCc1nc2ccccc2o1,255,211
CC(C)(N)CN1CCCN(c2ccc(F)cc2)CC1,265,203
Cc1cccc(NCCCNC(=O)c2cccs2)n1,> 501,> 501
Cc1ccc(S(=O)(=O)NCCN)cc1C(F)(F)F,> 501,102
C=C(C)CSc1nnc(CCNC(=O)OC(C)(C)C)o1,5.84,40.4
Fc1cnc(N2CCOCC3(CCCN(c4cnccn4)C3)C2)nc1 (stereo unspecified),> 50.1,> 50.1
COCC(C)NC(=O)CNc1ccc(OC)c(Br)c1 (stereo unspecified),184,172
Cc1ccc(C(=O)NCCNS(=O)(=O)C(C)C)cc1F,> 501,155
COc1ccc(C2CCN(CC(=O)NC(N)=O)C2)cc1 (stereo unspecified),> 501,> 501
CC(C)N1[C@H](CN2CCCC2)C[C@@H]2CN(Cc3ccoc3)CC[C@@H]21,> 50.1,> 50.1
Cc1csc(CN(C)CCOc2ccccc2)n1,20.5,23

Compound,IC50 [1] [µM],IC50 [2] [µM]
CCOC(=O)c1cnn(-c2ccc(OCC)cc2)c1N,53.9,81.7
O=C(Cn1ccc(C(F)(F)F)n1)NCc1ccco1,> 501,> 501
CCC(C(=O)N1CCC(N)CC1)c1ccccc1 (stereo unspecified),> 501,118
COC(=O)c1cc(C)nc(N2CCN(Cc3cc(C(C)C)no3)CC2)n1,> 50.1,> 50.1
NCc1nc(-c2cccc(C(F)(F)F)c2)no1,130,262
CCOc1cc(C(=O)NCCCOC(C)C)ccn1,137,87.9
CSc1ccc2c(c1)CCN(C(=O)C1CCNC1)C2 (stereo unspecified),> 501,168
NC(=O)NC(=O)CCN1CCCN(c2nccs2)CC1,25.1,35.5
CN(Cc1cnn(C)c1)C(=O)c1cc(Br)c[nH]1,> 501,95.2
CCC(C)Oc1cc(C(=O)NCC2(O)CCC2)ccn1 (stereo unspecified),29.6,62.8
N[C@@H](CO)C(=O)N1CCC(Cc2ccc(F)cc2)CC1,> 501,195
CS(=O)(=O)NCC1CCCN(C(=O)Nc2ccccc2Cl)C1 (stereo unspecified),> 50.1,> 50.1
Clc1ccc(OCCc2cc(C3CCN(c4ncccn4)C3)n[nH]2)cc1 (stereo unspecified),26.1,40
Cc1cccc(OCC(O)CNc2ncccc2F)c1 (stereo unspecified),11.6,19.7
Cc1cc(NC(=O)CN(C)Cc2ccccc2)no1,243,266
CCn1nnc(NCc2ccccc2OCc2ccc(Cl)cc2)n1,0.308,> 50.1
CS(=O)(=O)CCN1CCC(Oc2ccc(F)cc2)CC1,280,221
c1csc(CN2CC(c3nc(-c4cnccn4)no3)C2)c1,> 50.1,> 50.1
CC(Nc1ccc(OC(F)F)cn1)c1ccncc1 (stereo unspecified),246,195
CCOc1ccc(C(C)=O)cc1CN1CCCC1,111,59.8
O=C(c1cccc2cn[nH]c12)N1CCCC1CO (stereo unspecified),> 501,> 501
Cn1ncc2c(N3CCCN4CCC[C@H]4C3)nc(C(C)(C)C)nc21,47,> 50.1
O=C(Cc1cn2ccsc2n1)NCC1CCC1,179,282
CC1CCCN1C1CCN(CCNS(C)(=O)=O)CC1 (stereo unspecified),> 501,> 501
CCCNC(=O)c1cc(C(C)C)on1,44.3,9.31
